Converted amounts (≈) assume the structure as drawn. The source made the active and inactive calls. The rule behind the calls is not given here.
Experiments:
Candida albicans [1] = assay: Antifungal activity against Candida albicans ATCC 10231 by broth dilution method; assay type: functional
Candida albicans [2] = assay: Antifungal activity against Candida albicans CA5 by broth dilution method; assay type: functional
Pichia kudriavzevii [3] = assay: Antifungal activity against Candida krusei ATCC 34135 by broth dilution method; assay type: functional
Candida parapsilosis [4] = assay: Antifungal activity against Candida parapsilosis C27 by broth dilution method; assay type: functional
Aspergillus fumigatus = assay: Antifungal activity against Aspergillus fumigatus ATCC 13073 by broth dilution method; assay type: functional
Fusarium oxysporum = assay: Antifungal activity against Fusarium oxysporum AB18 by broth dilution method; assay type: functional
Microsporum canis = assay: Antifungal activity against Microsporum canis DMT2 by broth dilution method; assay type: functional
[5] = test system: Trichophyton mentagrophytes; assay: Antifungal activity against Trichophyton mentagrophytes DMT4 by broth dilution method; assay type: functional
Candida albicans [6] = assay: Antifungal activity against Candida albicans CA5 assessed as fungal growth at sub-MIC measured over 12 hrs by time-kill dependence-based spectrophotometric analysis relative to DMSO control; assay type: functional
Candida albicans [7] = assay: Antifungal activity against Candida albicans CA5 assessed as fungal growth at sub-MIC measured after 24 hrs by time-kill dependence-based spectrophotometric analysis relative to DMSO control; assay type: functional, organism-based
[8] = Induction of membrane damage in PC/PS liposome assessed as calcein release at MIC after 30 mins by fluorescence-based liposome leakage assay; assay type: functional
Candida albicans [9] = assay: Antibiofilm activity against Candida albicans assessed as inhibition of Spider medium-induced hyphae formation at sub-MIC after 24 hrs by propidium iodide and FITC-conjugated concanavaline A staining based fluorescence microscopy; assay type: functional, organism-based
Candida albicans [10] = assay: Antibiofilm activity against Candida albicans ATCC 10231 assessed as disruption of preformed biofilm after 24 hrs by concanavalin A-FITC-staining based fluorescence microscopic analysis; assay type: functional
Pichia kudriavzevii [11] = assay: Antibiofilm activity against Pichia kudriavzevii ATCC 34135 assessed as disruption of preformed biofilm after 24 hrs by concanavalin A-FITC-staining based fluorescence microscopic analysis; assay type: functional
Candida parapsilosis [12] = assay: Antibiofilm activity against Candida parapsilosis C27 assessed as disruption of preformed biofilm after 24 hrs by concanavalin A-FITC-staining based fluorescence microscopic analysis; assay type: functional
[13] = Toxicity against zebrafish embryo assessed as dead embryos at 50 ug/ml measured at 96 hrs post fertilization by inverted microscopic analysis; assay type: organism-based, Danio rerio; settings: read-out: Activity
[14] = Toxicity against zebrafish embryo assessed as dead embryos at 25 ug/ml measured at 96 hrs post fertilization by inverted microscopic analysis; assay type: organism-based, Danio rerio; settings: read-out: Activity
[15] = Toxicity against zebrafish embryo assessed as dead embryos at 10 ug/ml measured at 96 hrs post fertilization by inverted microscopic analysis; assay type: organism-based, Danio rerio; settings: read-out: Activity
[16] = Toxicity against zebrafish embryo assessed as dead embryos at 5 ug/ml measured at 96 hrs post fertilization by inverted microscopic analysis; assay type: organism-based, Danio rerio; settings: read-out: Activity
[17] = Toxicity against zebrafish embryo assessed as dead embryos at 2.5 ug/ml measured at 96 hrs post fertilization by inverted microscopic analysis; assay type: organism-based, Danio rerio; settings: read-out: Activity
Danio rerio [18] = species on record: Danio rerio; assay: Toxicity against zebrafish embryo assessed as teratogenic embryos at 50 ug/ml measured at 96 hrs post fertilization by inverted microscopic analysis; assay type: organism-based; settings: in vivo
Danio rerio [19] = species on record: Danio rerio; assay: Toxicity against zebrafish embryo assessed as teratogenic embryos at 25 ug/ml measured at 96 hrs post fertilization by inverted microscopic analysis; assay type: organism-based; settings: in vivo
Danio rerio [20] = species on record: Danio rerio; assay: Toxicity against zebrafish embryo assessed as teratogenic embryos at 10 ug/ml measured at 96 hrs post fertilization by inverted microscopic analysis; assay type: organism-based; settings: in vivo
Danio rerio [21] = species on record: Danio rerio; assay: Toxicity against zebrafish embryo assessed as teratogenic embryos at 5 ug/ml measured at 96 hrs post fertilization by inverted microscopic analysis; assay type: organism-based; settings: in vivo
Danio rerio [22] = species on record: Danio rerio; assay: Toxicity against zebrafish embryo assessed as teratogenic embryos at 2.5 ug/ml measured at 96 hrs post fertilization by inverted microscopic analysis; assay type: organism-based; settings: in vivo
Danio rerio [23] = species on record: Danio rerio; assay: Toxicity against zebrafish embryo assessed as effect on tail tip at 5 ug/ml measured at 96 hrs post fertilization by inverted microscopic analysis; assay type: organism-based; settings: in vivo
Danio rerio [24] = species on record: Danio rerio; assay: Toxicity against zebrafish embryo assessed as effect on tail tip at 2.5 ug/ml measured at 96 hrs post fertilization by inverted microscopic analysis; assay type: organism-based; settings: in vivo
Danio rerio [25] = species on record: Danio rerio; assay: Toxicity against zebrafish embryo assessed as growth retardation at 5 ug/ml measured at 96 hrs post fertilization by inverted microscopic analysis; assay type: organism-based; settings: in vivo
Danio rerio [26] = species on record: Danio rerio; assay: Toxicity against zebrafish embryo assessed as growth retardation at 2.5 ug/ml measured at 96 hrs post fertilization by inverted microscopic analysis; assay type: organism-based; settings: in vivo
[27] = Toxicity against zebrafish embryo measured at 96 hrs post fertilization by inverted microscopic analysis; assay type: organism-based, Danio rerio; settings: zebrafish embryos
Danio rerio [28] = species on record: Danio rerio; assay: Toxicity against zebrafish embryo assessed as normal embryos at 50 ug/ml measured at 96 hrs post fertilization by inverted microscopic analysis; assay type: organism-based; settings: in vivo
Danio rerio [29] = species on record: Danio rerio; assay: Toxicity against zebrafish embryo assessed as normal embryos at 25 ug/ml measured at 96 hrs post fertilization by inverted microscopic analysis; assay type: organism-based; settings: in vivo
Danio rerio [30] = species on record: Danio rerio; assay: Toxicity against zebrafish embryo assessed as normal embryos at 10 ug/ml measured at 96 hrs post fertilization by inverted microscopic analysis; assay type: organism-based; settings: in vivo
Danio rerio [31] = species on record: Danio rerio; assay: Toxicity against zebrafish embryo assessed as normal embryos at 5 ug/ml measured at 96 hrs post fertilization by inverted microscopic analysis; assay type: organism-based; settings: in vivo
Danio rerio [32] = species on record: Danio rerio; assay: Toxicity against zebrafish embryo assessed as normal embryos at 2.5 ug/ml measured at 96 hrs post fertilization by inverted microscopic analysis; assay type: organism-based; settings: in vivo
Danio rerio [33] = species on record: Danio rerio; assay: Toxicity against zebrafish embryo assessed as effect on notochord at 5 ug/ml measured at 96 hrs post fertilization by inverted microscopic analysis; assay type: organism-based; settings: in vivo
Danio rerio [34] = species on record: Danio rerio; assay: Toxicity against zebrafish embryo assessed as effect on notochord at 2.5 ug/ml measured at 96 hrs post fertilization by inverted microscopic analysis; assay type: organism-based; settings: in vivo
Danio rerio [35] = species on record: Danio rerio; assay: Toxicity against zebrafish embryo assessed as effect on eyes at 5 ug/ml measured at 96 hrs post fertilization by inverted microscopic analysis; assay type: organism-based; settings: in vivo
Danio rerio [36] = species on record: Danio rerio; assay: Toxicity against zebrafish embryo assessed as effect on eyes at 2.5 ug/ml measured at 96 hrs post fertilization by inverted microscopic analysis; assay type: organism-based; settings: in vivo
Danio rerio [37] = species on record: Danio rerio; assay: Toxicity against zebrafish embryo assessed as effect on otoliths at 5 ug/ml measured at 96 hrs post fertilization by inverted microscopic analysis; assay type: organism-based; settings: in vivo
Danio rerio [38] = species on record: Danio rerio; assay: Toxicity against zebrafish embryo assessed as effect on otoliths at 2.5 ug/ml measured at 96 hrs post fertilization by inverted microscopic analysis; assay type: organism-based; settings: in vivo
Danio rerio [39] = assay: Toxicity against zebrafish embryo assessed as pericardial edema at 5 ug/ml measured at 96 hrs post fertilization by inverted microscopic analysis; assay type: organism-based; settings: in vivo
Danio rerio [40] = assay: Toxicity against zebrafish embryo assessed as pericardial edema at 2.5 ug/ml measured at 96 hrs post fertilization by inverted microscopic analysis; assay type: organism-based; settings: in vivo
Danio rerio [41] = assay: Toxicity against zebrafish embryo assessed as yolk edema at 5 ug/ml measured at 96 hrs post fertilization by inverted microscopic analysis; assay type: organism-based; settings: in vivo
Danio rerio [42] = assay: Toxicity against zebrafish embryo assessed as yolk edema at 2.5 ug/ml measured at 96 hrs post fertilization by inverted microscopic analysis; assay type: organism-based; settings: in vivo
Danio rerio [43] = species on record: Danio rerio; assay: Toxicity against zebrafish embryo assessed as effect on heart beat at 5 ug/ml measured at 96 hrs post fertilization by inverted microscopic analysis; assay type: organism-based; settings: in vivo
Danio rerio [44] = species on record: Danio rerio; assay: Toxicity against zebrafish embryo assessed as effect on heart beat at 2.5 ug/ml measured at 96 hrs post fertilization by inverted microscopic analysis; assay type: organism-based; settings: in vivo
Danio rerio [45] = species on record: Danio rerio; assay: Toxicity against zebrafish embryo assessed as effect on blood circulation at 5 ug/ml measured at 96 hrs post fertilization by inverted microscopic analysis; assay type: organism-based; settings: in vivo
Danio rerio [46] = species on record: Danio rerio; assay: Toxicity against zebrafish embryo assessed as effect on blood circulation at 2.5 ug/ml measured at 96 hrs post fertilization by inverted microscopic analysis; assay type: organism-based; settings: in vivo
Danio rerio [47] = species on record: Danio rerio; assay: Toxicity against zebrafish embryo assessed as unhatched embryos at 5 ug/ml measured at 96 hrs post fertilization by inverted microscopic analysis; assay type: organism-based; settings: in vivo
Danio rerio [48] = species on record: Danio rerio; assay: Toxicity against zebrafish embryo assessed as unhatched embryos at 2.5 ug/ml measured at 96 hrs post fertilization by inverted microscopic analysis; assay type: organism-based; settings: in vivo
Danio rerio [49] = species on record: Danio rerio; assay: Toxicity against zebrafish embryo assessed as head malformation at 5 ug/ml measured at 96 hrs post fertilization by inverted microscopic analysis; assay type: organism-based; settings: in vivo
Danio rerio [50] = species on record: Danio rerio; assay: Toxicity against zebrafish embryo assessed as head malformation at 2.5 ug/ml measured at 96 hrs post fertilization by inverted microscopic analysis; assay type: organism-based; settings: in vivo
Danio rerio [51] = species on record: Danio rerio; assay: Toxicity against zebrafish embryo assessed as skeletal deformities at 5 ug/ml measured at 96 hrs post fertilization by inverted microscopic analysis; assay type: organism-based; settings: in vivo
Danio rerio [52] = species on record: Danio rerio; assay: Toxicity against zebrafish embryo assessed as skeletal deformities at 2.5 ug/ml measured at 96 hrs post fertilization by inverted microscopic analysis; assay type: organism-based; settings: in vivo

C[C@@H](c1ncncc1F)[C@](O)(Cn1cncn1)c1ccc(F)cc1F [VORICONAZOLE]
MIC (Candida albicans [1]): 0.5 µg/mL (≈ 1.43 µM) | MIC (Candida albicans [2]): inactive | MIC (Pichia kudriavzevii [3]): 0.06 µg/mL (≈ 0.172 µM) | MIC (Candida parapsilosis [4]): inactive | MIC (Aspergillus fumigatus): 0.06 µg/mL (≈ 0.172 µM) | MIC (Fusarium oxysporum): inactive | MIC (Microsporum canis): 0.5 µg/mL (≈ 1.43 µM) | MIC [5]: 0.25 µg/mL (≈ 0.716 µM) | Activity (Candida albicans [6]): Active | Activity (Candida albicans [7]): inactive | Activity [8]: 12% | Activity (Candida albicans [9]): Active | MBEC (Candida albicans [10]): 250 µg/mL | MBEC (Pichia kudriavzevii [11]): 250 µg/mL | MBEC (Candida parapsilosis [12]): inactive | mortality at 96 h, 50 ug/ml [13]: 100% | mortality at 96 h, 25 ug/ml [14]: 100% | mortality at 96 h, 10 ug/ml [15]: 100% | mortality at 96 h, 5 ug/ml [16]: 80% | mortality at 96 h, 2.5 ug/ml [17]: 36.7% | Activity (Danio rerio [18]): 0% | Activity (Danio rerio [19]): 0% | Activity (Danio rerio [20]): 0% | Activity (Danio rerio [21]): 20% | Activity (Danio rerio [22]): 63.33% | Activity (Danio rerio [23]): 0% | Activity (Danio rerio [24]): 0% | Activity (Danio rerio [25]): 100% | Activity (Danio rerio [26]): 100% | LC50 at 96 h [27]: 3.1 µg/mL (≈ 8.87 µM) | Activity (Danio rerio [28]): 0% | Activity (Danio rerio [29]): 0% | Activity (Danio rerio [30]): 0% | Activity (Danio rerio [31]): 0% | Activity (Danio rerio [32]): 0% | Activity (Danio rerio [33]): 0% | Activity (Danio rerio [34]): 0% | Activity (Danio rerio [35]): 100% | Activity (Danio rerio [36]): 100% | Activity (Danio rerio [37]): 100% | Activity (Danio rerio [38]): 100% | Activity (Danio rerio [39]): 100% | Activity (Danio rerio [40]): 100% | Activity (Danio rerio [41]): 100% | Activity (Danio rerio [42]): 0% | Activity (Danio rerio [43]): 100% | Activity (Danio rerio [44]): 0% | Activity (Danio rerio [45]): 100% | Activity (Danio rerio [46]): 0% | Activity (Danio rerio [47]): 0% | Activity (Danio rerio [48]): 0% | Activity (Danio rerio [49]): 100% | Activity (Danio rerio [50]): 100% | Activity (Danio rerio [51]): 100% | Activity (Danio rerio [52]): 94.74%

From ChEMBL document CHEMBL3763135, “Synthesis and evaluation of thiophene-based guanylhydrazones (iminoguanidines) efficient against panel of voriconazole-resistant fungal isolates” (Bioorg Med Chem, 2016)
